1 compound from patent US8298582B2, “Polysaccharide-based impregnated solid material with improved stability, processes for the preparation thereof and impregnating solutions used” (Hydro-Quebec, priority 2006, dated 2012) can be followed below.

Series [1] can be described thus: Resistance to leaching, modified AWPA procedure E11-06 (5 faces protected). The class given is physicochemical. As for the experimental part:
This technique is based on AWPA protocol E11-06. The blocks are soaked in demineralized water at ambient temperature. Water samples are taken regularly and an analysis by ICP spectrometry is carried out (after dilution of the solution by a factor of 250) in order to evaluate the amount of boron present in the solution. The results are represented in FIGS. 5 and 5′.

A further series deals with Gleophyllum trabeum. The series can be described thus: Soil-block culture test, AWPA protocol E10-06, on leached treated wood blocks. Conditions: after 20 weeks of exposure, red pine sapwood blocks leached one week before the test. The class given is cell-based. As for the experimental part:
(§1) Tests for evaluating the degradation-resistance of the wood according to various treatments were carried out by following AWPA protocol E10-06. These tests were carried out using two brown rots: Postia placenta and Gleophyllum trabeum.
(§2) These two preparations are used to treat blocks of 19 mm×19 mm×19 mm of red pine sapwood by means of a partial vacuum of −65 cmHg maintained for 30 minutes. This type of solution forms a gel in the cells of the wood after a period of one hour. In order to accelerate the crosslinking process and to allow drying, the blocks are heated overnight at 60° C.
(§3) In order to validate the capacity of our treatment to retain the boron in the wood and to play its role of wood-preserving agent, the treated blocks were soaked for one week in demineralized water in order to extract all traces of non-chelated boric acid or DOT.
(§4) After drying, the blocks were subjected to the laboratory “soil-block” culture test, strictly according to AWPA protocol E10-06.

In a further series the test system is Postia placenta. Described as above. The class given is cell-based. To be noted: after 20 weeks of exposure, red pine sapwood blocks leached one week before the test. As for the experimental part:
as §1, §2, §3, §4

On to `OB(O)O` [Boric acid, boric acid], for which the loss of boron in series [1] (over a period of 8 days, red pine sapwood cubes) is recorded as 67%; in series [1] (over a period of 15 days), 32%. In addition, the “Weight loss (%) Gleophyllum trabeum” value in the series with Gleophyllum trabeum is recorded as 67.5%; in the series on Gleophyllum trabeum (listed as boric acid), “substantial loss”. Moreover, the entries for the “Weight loss (%) Postia placenta” value in the series on Postia placenta and in the series with Postia placenta (listed as boric acid) were 67.5% and “substantial loss”, respectively.
